Results as given in patent US20160287621A1, “BIOLOGICAL PRODUCTION OF NAD PRECURSORS AND ANALOGS” (PRESIDENT AND FELLOWS OF HARVARD COLLEGE, priority 2013, published 2016).

Key:
[1] = cigarette smokers, small clinical trial; cited from earlier work
[2] = tested on: Human dermal fibroblasts (HDFa); assay: NAD+ levels in human dermal fibroblasts treated for 24 hrs; format: cell-based
Protocol: A and B) Human dermal fibroblasts (HDFa) were treated with various concentration of NMN extract or pure NMN from Sigma (St. Louis, Mo.) respectively for 24 hrs and NAD+ levels were determined.
A) and B) Human dermal fibroblasts (HDFa) were treated with 50 μM of pure NMN and different concentration of Folate or S-adenosyl-L-methionine (SAM) respectively for 24 hrs and NAD^+ levels were determined.
The effect of pure NMN and partially purified NMN extract on the NAD^+ level in cells was investigated. Briefly, human dermal fibroblasts (HDFa) were treated with varying concentrations of NMN extract or pure NMN for 24 hours and NAD^+ levels were determined. Pure NMN was obtained from Sigma. Partially purified NMN extract was obtained using the methods described above.

For `Cc1nc(-c2cccnc2)sc1C(=O)Nc1ccccc1-c1cn2c(CN3CCOCC3)csc2n1` [SRT2104], the “serum lipid profile (total cholesterol, LDL and triglycerides)” value [1] is listed as “improved the serum lipid profile”.

With `C[S+](CC[C@H](N)C(=O)O)C[C@H]1O[C@@H](n2cnc3c(N)ncnc32)[C@H](O)[C@@H]1O` (stereo partly drawn) [SAM, S-adenosyl-L-methionine] the “effect for raising NAD+ levels in combination with NMN” value ([2]; 50 μM pure NMN plus different concentrations of Folate or SAM, 24 hrs) was “synergistic effect”.

For `NC(=O)c1ccc[n+]([C@@H]2O[C@H](COP(=O)([O-])O)[C@@H](O)[C@H]2O)c1` [Pure NMN, nicotinamide mononucleotide], the “NAD+ levels in cells” value ([2]; varying concentrations, 24 hours) was “increased levels of NAD^+”.
